Data published in patent US8759333B2, “Di-azetidinyl diamide as monoacylglycerol lipase inhibitors” (Janssen Pharmaceutica, NV, priority 2010, dated 2014).
Positions count from the first letter of the chain named.

Tests used:
[1] = molecular target: T1, mutant MGL (mut-MGLL 11-313 L179S L186S) (Homo sapiens, UniProt Q99685, L169S/L176S); test: MGL Enzyme Activity Assay, purified mutant MGL, 4MU-B substrate; assay type: biochemical; conditions: mutant MGL 5 nM, 4MU-B 10 μM, 37° C.; read-out: MGL mutant inh IC50
T1 construct: purified mutant MGL (mut-MGLL 11-313 L179S L186S)
T1 sequence (Q99685 1-303 L169S/L176S): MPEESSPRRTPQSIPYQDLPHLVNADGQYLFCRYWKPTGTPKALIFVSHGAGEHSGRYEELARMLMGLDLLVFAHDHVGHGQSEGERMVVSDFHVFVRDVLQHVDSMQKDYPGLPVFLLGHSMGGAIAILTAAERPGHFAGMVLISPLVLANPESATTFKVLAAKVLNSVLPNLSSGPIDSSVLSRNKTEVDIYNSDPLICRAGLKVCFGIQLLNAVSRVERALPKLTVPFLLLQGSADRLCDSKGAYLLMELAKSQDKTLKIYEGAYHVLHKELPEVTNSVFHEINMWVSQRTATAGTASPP
Summary of the method: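 Purified mutant MGL (5 nM final) with 10 μM 4MU-B in 20 mM PIPES pH 7.0, 150 mM NaCl, 0.001% Tween 20; compounds 17 to 0.0003 μM final. Fluorescence (ex 335/em 440 nm) followed 5 min at 37 °C; IC50 from fit of fractional activity versus inhibitor concentration.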

[2] = molecular target: T2, MGL (Rattus norvegicus, UniProt Q8R431); test: 2-AG Accumulation Assay in rat brain homogenate; assay type: biochemical; conditions: percent of vehicle; for activity at 1 µM: compound @1 µM, read-out: Rat Brain 2AG % VehCntrl (%) @1 µM; for activity at 10 µM: compound @10 µM, read-out: Rat Brain 2AG % VehCntrl (%) @10 µM
T2 construct: one g rat brain was homogenized using a Polytron homogenizer; from tissue; host or cells: rat brain homogenate
T2 sequence (Q8R431 1-303): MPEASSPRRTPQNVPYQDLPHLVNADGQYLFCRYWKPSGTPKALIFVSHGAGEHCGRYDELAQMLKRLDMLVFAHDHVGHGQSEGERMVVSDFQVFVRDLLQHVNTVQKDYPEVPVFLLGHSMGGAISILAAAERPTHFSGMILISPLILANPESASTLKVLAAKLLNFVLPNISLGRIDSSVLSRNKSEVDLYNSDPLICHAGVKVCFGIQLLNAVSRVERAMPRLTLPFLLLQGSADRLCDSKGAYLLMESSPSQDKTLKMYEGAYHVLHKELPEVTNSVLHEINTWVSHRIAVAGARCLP

[3] = molecular target: T3, wild type MGL (wt-MGLL 6H-11-313) (Homo sapiens, UniProt Q99685); test: MGL Enzyme Activity Assay, purified wild type MGL, 4MU-B substrate; assay type: biochemical; conditions: wild type MGL 5 nM, 4MU-B 10 μM, 37° C.; read-out: MGL wild type inh IC50
T3 construct: purified wild type MGL (wt-MGLL 6H-11-313); 6H (hexahistidine) (N)
T3 sequence (Q99685 1-303): T1 sequence (Q99685 1-303 L169S/L176S) with S169L, S176L
Protocol: All rate-based assays were performed in black 384-well polypropylene PCR microplates (Abgene) in a total volume of 30 μL. […] Final compound concentrations ranged from 17 to 0.0003 μM.
The IC50 values for the following compounds were determined using Microsoft Office Excel from a fit of the equation to the concentration-response plot of the fractional activity as a function of inhibitor concentration.

[4] = molecular target: T4, mutant MGL (Homo sapiens, UniProt Q99685, L169S/L176S); test: MGL ThermoFluor Assay - Mutant; assay type: binding; conditions: 0.07 mg/ml mutant MGL, 100 μM ANS, pH 7.0
T4 construct: purified mutant MGL (mut-MGLL 11-313 L179S L186S)
T4 sequence (Q99685 1-303 L169S/L176S): T1 sequence (Q99685 1-303 L169S/L176S)
Summary of the method: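 Thermal-shift binding with 0.07 mg/ml L169S/L176S mutant MGL, 100 μM 1,8-ANS, 200 mM NaCl, 0.001% Tween-20, 50 mM PIPES pH 7.0, heated 40–90 °C at 1 °C/min.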

Structure (SMILES)	IC50 [1]	activity at 1 µM [2]	IC50 [3]	Kd [4]	activity at 10 µM [2]
O=C(NC1CN(C2CN(C(=O)c3ccc4nc(-c5ccccc5)sc4c3)C2)C1)c1nccs1 [Cpd 4, N-{1′-[(2-Phenyl-1,3-benzothiazol-6-yl)carbonyl]-1,3′-biazetidin-3-yl}-1,3-thiazole-2-carboxamide]	7 nM	148%	13 nM	143 nM	–
O=C(NC1CN(C2CN(C(=O)c3cc4ccc(C(F)(F)F)cc4s3)C2)C1)c1nccs1 [Cpd 7, N-(1′-{[6-(Trifluoromethyl)-1-benzothiophen-2-yl]carbonyl}-1,3′-biazetidin-3-yl)-1,3-thiazole-2-carboxamide]	10 nM	243%	< 5 nM	10 nM	–
O=C(NC1CN(C2CN(C(=O)c3ccc(-c4ccc(C(F)(F)F)s4)cc3)C2)C1)c1nccs1 [Cpd 9, N-[1′-({4-[5-(Trifluoromethyl)thiophen-2-yl]phenyl}carbonyl)-1,3′-biazetidin-3-yl]-1,3-thiazole-2-carboxamide]	13 nM	193%	506 nM	14 nM	160%
O=C(NC1CN(C2CN(C(=O)c3ccc(-c4ccc(C(F)(F)F)cc4)cc3)C2)C1)c1nccs1 [Cpd 12, N-(1′-{[4′-(Trifluoromethyl)biphenyl-4-yl]carbonyl}-1,3′-biazetidin-3-yl)-1,3-thiazole-2-carboxamide]	18 nM	215%	< 5 nM	51 nM	557%
O=C(NC1CN(C2CN(C(=O)c3ccc4c(ccn4-c4ccccc4)c3)C2)C1)c1nccs1 [Cpd 13, N-{1′-[(1-Phenyl-1H-indol-5-yl)carbonyl]-1,3′-biazetidin-3-yl}-1,3-thiazole-2-carboxamide]	19 nM	441%	< 5 nM	50 nM	–
O=C(NC1CN(C2CN(C(=O)c3ccc(-c4ccc(C(F)(F)F)cc4)cc3)C2)C1)c1cscn1 [Cpd 14, N-(1′-{[4′-(Trifluoromethyl)biphenyl-4-yl]carbonyl}-1,3′-biazetidin-3-yl)-1,3-thiazole-4-carboxamide]	27 nM	187%	9 nM	86 nM	–
O=C(NC1CN(C2CN(C(=O)c3cc4ccc(C(F)(F)F)cc4s3)C2)C1)c1cscn1 [Cpd 49, N-(1′-{[6-(Trifluoromethyl)-1-benzothiophen-2-yl]carbonyl}-1,3′-biazetidin-3-yl)-1,3-thiazole-4-carboxamide]	< 5 nM	167%	14 nM	31.9 nM	–
O=C(NC1CN(C2CN(C(=O)c3sc4cc(C(F)(F)F)ccc4c3Cl)C2)C1)c1nccs1 [Cpd 50, N-(1′-{[3-Chloro-6-(trifluoromethyl)-1-benzothiophen-2-yl]carbonyl}-1,3′-biazetidin-3-yl)-1,3-thiazole-2-carboxamide]	< 5 nM	460%	< 5 nM	0.7 nM	–
O=C(NC1CN(C2CN(C(=O)c3sc4cc(C(F)(F)F)ccc4c3Cl)C2)C1)c1cscn1 [Cpd 51, N-(1′-{[3-Chloro-6-(trifluoromethyl)-1-benzothiophen-2-yl]carbonyl}-1,3′-biazetidin-3-yl)-1,3-thiazole-4-carboxamide]	< 5 nM	477%	< 5 nM	2.2 nM	–
O=C(NC1CN(C2CN(C(=O)c3ccc4c(cnn4-c4ccccc4)c3)C2)C1)c1nccs1 [Cpd 52, N-{1′-[(1-Phenyl-1H-indazol-5-yl)carbonyl]-1,3′-biazetidin-3-yl}-1,3-thiazole-2-carboxamide]	< 5 nM	291%	< 5 nM	73.4 nM	–
O=C(NC1CN(C2CN(C(=O)c3ccc(-c4cccc(C(F)(F)F)c4)cc3F)C2)C1)c1nccs1 [Cpd 64, N-(1′-{[3-Fluoro-3′-(trifluoromethyl)biphenyl-4-yl]carbonyl}-1,3′-biazetidin-3-yl)-1,3-thiazole-2-carboxamide]	–	253%	< 5 nM	20 nM	–
O=C(c1sc2cc(-c3ccccc3)ccc2c1Cl)N1CC(N2CC(N3Cc4ccccc4C3=O)C2)C1 [Cpd 68, 2-{1′-[(3-Chloro-6-phenyl-1-benzothiophen-2-yl)carbonyl]-1,3′-biazetidin-3-yl}-2,3-dihydro-1H-isoindol-1-one]	6 nM	433%	< 5 nM	3.3 nM	–
CS(=O)(=O)c1cccc(-c2ccc3cc(C(=O)N4CC(N5CC(N6Cc7ccccc7C6=O)C5)C4)sc3c2)c1 [Cpd 72, 2-[1′-({6-[3-(Methylsulfonyl)phenyl]-1-benzothiophen-2-yl}carbonyl)-1,3′-biazetidin-3-yl]-2,3-dihydro-1H-isoindol-1-one]	9 nM	781%	< 5 nM	33.2 nM	–
O=C(c1sc2cc(Br)ccc2c1Cl)N1CC(N2CC(N3Cc4ccccc4C3=O)C2)C1 [Cpd 73, 2-{1′-[(6-Bromo-3-chloro-1-benzothiophen-2-yl)carbonyl]-1,3′-biazetidin-3-yl}-2,3-dihydro-1H-isoindol-1-one]	12 nM	295%	< 5 nM	31.3 nM	–
O=C(c1sc2cc(-c3ccccc3)ccc2c1-c1ccccc1)N1CC(N2CC(N3Cc4ccccc4C3=O)C2)C1 [Cpd 74, 2-{1′-[(3,6-Diphenyl-1-benzothiophen-2-yl)carbonyl]-1,3′-biazetidin-3-yl}-2,3-dihydro-1H-isoindol-1-one]	12 nM	323%	< 5 nM	1.3 nM	–
CS(=O)(=O)c1cccc(-c2ccc3sc(C(=O)N4CC(N5CC(N6Cc7ccccc7C6=O)C5)C4)cc3c2)c1 [Cpd 82, 2-[1′-({5-[3-(Methylsulfonyl)phenyl]-1-benzothiophen-2-yl}carbonyl)-1,3′-biazetidin-3-yl]-2,3-dihydro-1H-isoindol-1-one]	22 nM	490%	16 nM	105 nM	–
Cc1c(C(=O)N2CC(N3CC(N4Cc5scnc5C4=O)C3)C2)sc2cc(C(F)(F)F)ccc12 [Cpd 103, 5-(1′-{[3-Methyl-6-(trifluoromethyl)-1-benzothiophen-2-yl]carbonyl}-1,3′-biazetidin-3-yl)-5,6-dihydro-4H-pyrrolo[3,4-d][1,3]thiazol-4-one]	–	360%	21 nM	33 nM	–
